Source: PMC7587356, “High-Throughput Screening for Inhibitors of the SARS-CoV-2 Protease Using a FRET-Biosensor” (Molecules, 2020)
Structures can show the parent of a compound that is named as a salt. Where two headings read alike, the source gives them in different places.

Biological target: SARS-CoV-2 3CLpro (Severe acute respiratory syndrome coronavirus 2, UniProt P0DTD1)
Test: biochemical
Assay type: biochemical
Parameters: Replicate_1 / Replicate_2 / mean / mean (LOPAC_screen_w_protease): unit not given here
Conditions: for inhibition at 5 µM: 4 h; for mean (LOPAC screen with protease) / Replicate_1 (LOPAC screen with protease) / Replicate_2 (LOPAC screen with protease): primary screen at 5 µM
[1] = sheet LOPAC_screen_w_protease, LOPAC1280 primary screen with protease, 5 µM compound, mean of the two replicates, read-out: mean
[2] = sheet LOPAC_screen_w_protease, LOPAC1280 primary screen with protease, 5 µM compound, replicate 1, read-out: Replicate_1
[3] = sheet LOPAC_screen_w_protease, LOPAC1280 primary screen with protease, 5 µM compound, replicate 2, read-out: Replicate_2
[4] = sheet LOPAC_screen_w_protease, primary screen with protease, compound at 5 µM, mean of two replicates, read-out: mean
[5] = sheet LOPAC_screen_w_protease, primary screen with protease, compound at 5 µM, replicate 1, read-out: Replicate_1
[6] = sheet LOPAC_screen_w_protease, primary screen with protease, compound at 5 µM, replicate 2, read-out: Replicate_2
[7] = sheet LOPAC_screen_w_protease, primary screen of LOPAC1280 at 5 µM with protease, mean of the two replicates, read-out: mean
[8] = sheet LOPAC_screen_w_protease, primary screen of LOPAC1280 at 5 µM with protease, replicate 1, read-out: Replicate_1
[9] = sheet LOPAC_screen_w_protease, primary screen of LOPAC1280 at 5 µM with protease, replicate 2, read-out: Replicate_2
[10] = sheet LOPAC_screen_w_protease, primary screen of LOPAC1280 at 5 µM with protease, mean of the two replicates
[11] = sheet LOPAC_screen_w_protease, primary screen of LOPAC1280 at 5 µM with protease, replicate 1
[12] = sheet LOPAC_screen_w_protease, primary screen of LOPAC1280 at 5 µM with protease, replicate 2
[13] = sheet LOPAC_screen_w_protease, LOPAC1280 at 5 µM, mean of two replicates
[14] = sheet LOPAC_screen_w_protease, LOPAC1280 at 5 µM, replicate 1
[15] = sheet LOPAC_screen_w_protease, LOPAC1280 at 5 µM, replicate 2
[16] = LOPAC1280 primary screen with protease, 5 µM compound, mean of two replicates
[17] = LOPAC1280 primary screen with protease, 5 µM compound, replicate 1
[18] = LOPAC1280 primary screen with protease, 5 µM compound, replicate 2
[19] = LOPAC1280 primary screen with protease, 5 µM compound, replicate 1, read-out: Replicate_1 (LOPAC_screen_w_protease)
[20] = LOPAC1280 primary screen with protease, 5 µM compound, replicate 2, read-out: Replicate_2 (LOPAC_screen_w_protease)
[21] = sheet LOPAC_screen_w_protease, mean of two replicates
[22] = sheet LOPAC_screen_w_protease, replicate 1
[23] = sheet LOPAC_screen_w_protease, replicate 2
[24] = LOPAC1280 primary screen with protease, 5 µM compound, mean of the two replicates

## CC#C[C@]1(O)CC[C@H]2[C@@H]3CCC4=CC(=O)CCC4=C3[C@@H](c3ccc(N(C)C)cc3)C[C@@]21C [Mifepristone]
[1]
  inhibition at 5 µM: 4.62%
[2]
  inhibition at 5 µM: 3.53%
[3]
  inhibition at 5 µM: 5.7%

## Cc1[nH]c(=O)c(C#N)cc1-c1ccncc1 [Milrinone]
[1]
  inhibition at 5 µM: 4.26%
[2]
  inhibition at 5 µM: 3.12%
[3]
  inhibition at 5 µM: 5.4%

## CN(C)c1ccc(O)c2c1C[C@H]1C[C@H]3[C@H](N(C)C)C(O)=C(C(N)=O)C(=O)[C@@]3(O)C(O)=C1C2=O [Minocycline hydrochloride]
[1]
  inhibition at 5 µM: 5.31%
[2]
  inhibition at 5 µM: 4.79%
[3]
  inhibition at 5 µM: 5.84%

## Nc1cc(N2CCCCC2)nc(N)[n+]1[O-] [Minoxidil]
[4]
  inhibition at 5 µM: 2.95%
[5]
  inhibition at 5 µM: 3.92%
[6]
  inhibition at 5 µM: 1.98%

## NC(=O)c1ncn([C@@H]2O[C@H](CO)[C@@H](O)[C@H]2O)c1O [Mizoribine]
[1]
  inhibition at 5 µM: 4.8%
[2]
  inhibition at 5 µM: 4.56%
[3]
  inhibition at 5 µM: 5.05%

## CCOC(=O)[N-]c1cn(N2CCOCC2)n[o+]1 [Molsidomine]
[4]
  inhibition at 5 µM: 2.83%
[5]
  inhibition at 5 µM: 1.44%
[6]
  inhibition at 5 µM: 4.23%

## CCOC(=O)C1=C(C)NC(=S)NC1c1cccc(O)c1 (stereo not drawn) [Monastrol]
[1]
  inhibition at 5 µM: 6.04%
[2]
  inhibition at 5 µM: 5.54%
[3]
  inhibition at 5 µM: 6.55%

## O=c1c(O)c(-c2ccc(O)cc2O)oc2cc(O)cc(O)c12 [Morin]
read-out: Replicate_1
  inhibition at 5 µM: 6.85%
read-out: Replicate_2
  inhibition at 5 µM: 5.63%
read-out: mean
  inhibition at 5 µM: 6.24%

## CC(=O)Oc1cc(C(C)C)c(OCCN(C)C)cc1C [Moxisylyte hydrochloride]
[7]
  inhibition at 5 µM: 3.55%
[8]
  inhibition at 5 µM: 4.09%
[9]
  inhibition at 5 µM: 3.01%

## COc1nc(C)nc(Cl)c1NC1=NCCN1.Cl [Moxonidine hydrochloride]
[10]
  mean: 3.905
[11]
  Replicate_1: 2.314
[12]
  Replicate_2: 5.497

## Br.NCc1cc(O)no1 [Muscimol hydrobromide]
Sheet LOPAC_screen_w_protease, primary screen with protease, 5 µM, mean of two replicates
  mean: 0.06352
Sheet LOPAC_screen_w_protease, primary screen with protease, 5 µM, replicate 1
  Replicate_1: 2.752
Sheet LOPAC_screen_w_protease, primary screen with protease, 5 µM, replicate 2
  Replicate_2: -2.625

## Nc1ccc(CCNc2ncnc3c2ncn3[C@@H]2O[C@H](CO)[C@@H](O)[C@H]2O)cc1 [N6-2-(4-Aminophenyl)ethyladenosine]
[10]
  mean: 3.204
[11]
  Replicate_1: 3.6817
[12]
  Replicate_2: 2.726

## OC[C@H]1O[C@@H](n2cnc3c(NCCc4ccccc4)ncnc32)[C@H](O)[C@@H]1O [N6-2-Phenylethyladenosine]
Sheet LOPAC_screen_w_protease, LOPAC1280 primary screen at 5 µM, with protease, mean of the two replicates
  mean: 0.6761
Sheet LOPAC_screen_w_protease, LOPAC1280 primary screen at 5 µM, with protease, replicate 1
  Replicate_1: 1.884
Sheet LOPAC_screen_w_protease, LOPAC1280 primary screen at 5 µM, with protease, replicate 2
  Replicate_2: -0.5317

## CCNC(=O)[C@H]1O[C@@H](n2cnc3c(NCc4ccccc4)ncnc32)[C@H](O)[C@@H]1O [N6-Benzyl-5'-N-ethylcarboxamidoadenosine]
[13]
  mean: 1.239
[14]
  Replicate_1: -0.1675
[15]
  Replicate_2: 2.645

## OC[C@H]1O[C@@H](n2cnc3c(NC4CCCCC4)ncnc32)[C@H](O)[C@@H]1O [N6-Cyclohexyladenosine]
[16]
  mean (LOPAC_screen_w_protease): 1.471
[17]
  Replicate_1 (LOPAC_screen_w_protease): 2.337
[18]
  Replicate_2 (LOPAC_screen_w_protease): 0.606

## Cn1cnc2c(NC3CCCC3)ncnc21 [N6-Cyclopentyl-9-methyladenine]
[10]
  mean: 3.328
[11]
  Replicate_1: 3.176
[12]
  Replicate_2: 3.4795

## OC[C@H]1O[C@@H](n2cnc3c(NC4CCCC4)ncnc32)[C@H](O)[C@@H]1O [N6-Cyclopentyladenosine]
Sheet LOPAC_screen_w_protease, primary screen with protease, mean of two replicates, read-out: mean
  inhibition at 5 µM: 2.13%
Sheet LOPAC_screen_w_protease, primary screen with protease, replicate 1, read-out: Replicate_1
  inhibition at 5 µM: 1.59%
Sheet LOPAC_screen_w_protease, primary screen with protease, replicate 2, read-out: Replicate_2
  inhibition at 5 µM: 2.67%

## CNc1ncnc2c1ncn2[C@@H]1O[C@H](CO)[C@@H](O)[C@H]1O [N6-Methyladenosine]
Sheet LOPAC_screen_w_protease, primary screen with protease, compound at 5 µM, mean of two replicates
  mean: 2.9788
Sheet LOPAC_screen_w_protease, primary screen with protease, compound at 5 µM, replicate 1
  Replicate_1: 2.994
Sheet LOPAC_screen_w_protease, primary screen with protease, compound at 5 µM, replicate 2
  Replicate_2: 2.964

## OC[C@H]1O[C@@H](n2cnc3c(Nc4ccccc4)ncnc32)[C@H](O)[C@@H]1O [N6-Phenyladenosine]
[19]
  inhibition at 5 µM: 2.83%
[20]
  inhibition at 5 µM: 0.0632%
[16]
  mean (LOPAC_screen_w_protease): 1.447

## CN(C)C(=O)N=NC(=O)N(C)C [N,N,N',N'-Tetramethylazodicarboxamide]
[21]
  mean (LOPAC screen with protease): 22.0405
[22]
  Replicate_1 (LOPAC screen with protease): 23.2519
[23]
  Replicate_2 (LOPAC screen with protease): 20.8292

## NCC(=O)NCCC(c1ccccc1)c1ccccc1 [N-(3,3-Diphenylpropyl)glycinamide]
[16]
  mean (LOPAC_screen_w_protease): 1.396
[17]
  Replicate_1 (LOPAC_screen_w_protease): 1.194
[18]
  Replicate_2 (LOPAC_screen_w_protease): 1.598

## Nc1ccc(N2C(=O)c3ccccc3C2=O)c(Cl)c1 [N-(4-Amino-2-chlorophenyl)phthalimide]
Sheet LOPAC_screen_w_protease, primary screen with protease, mean of two replicates
  mean: 2.38
Sheet LOPAC_screen_w_protease, primary screen with protease, replicate 1
  Replicate_1: 2.0208
Sheet LOPAC_screen_w_protease, primary screen with protease, replicate 2
  Replicate_2: 2.74

## CC(=O)NCCc1c[nH]c2ccc(O)cc12 [N-Acetyl-5-hydroxytryptamine]
[16]
  mean (LOPAC_screen_w_protease): 1.513
[17]
  Replicate_1 (LOPAC_screen_w_protease): 1.947
[18]
  Replicate_2 (LOPAC_screen_w_protease): 1.078

## CC(=O)N[C@@H](CS)C(=O)O [N-Acetyl-L-Cysteine]
read-out: Replicate_1
  inhibition at 5 µM: 0.481%
read-out: Replicate_2
  inhibition at 5 µM: 0.723%
read-out: mean
  inhibition at 5 µM: 0.602%

## CC(=O)NCCc1ccc(O)c(O)c1.O [N-Acetyldopamine monohydrate]
[21]
  mean (LOPAC screen with protease): 81.0563
[22]
  Replicate_1 (LOPAC screen with protease): 83.9163
[23]
  Replicate_2 (LOPAC screen with protease): 78.1962

## CCN(CC)CCNC(=O)c1ccc(NC(C)=O)cc1.Cl [N-Acetylprocainamide hydrochloride]
[16]
  mean (LOPAC_screen_w_protease): 1.374
[17]
  Replicate_1 (LOPAC_screen_w_protease): 0.6051
[18]
  Replicate_2 (LOPAC_screen_w_protease): 2.1421

## CC(=O)NCCc1c[nH]c2ccccc12 [N-Acetyltryptamine]
Sheet LOPAC_screen_w_protease, LOPAC1280 primary screen at 5 µM, with protease, mean of the two replicates, read-out: mean
  inhibition at 5 µM: 0.808%
Sheet LOPAC_screen_w_protease, LOPAC1280 primary screen at 5 µM, with protease, replicate 1, read-out: Replicate_1
  inhibition at 5 µM: 1.07%
Sheet LOPAC_screen_w_protease, LOPAC1280 primary screen at 5 µM, with protease, replicate 2, read-out: Replicate_2
  inhibition at 5 µM: 0.543%

## CC(=O)NBr [N-Bromoacetamide]
[24]
  mean (LOPAC_screen_w_protease): 1.955
[17]
  Replicate_1 (LOPAC_screen_w_protease): 1.503
[18]
  Replicate_2 (LOPAC_screen_w_protease): 2.407

## CCN1C(=O)C=CC1=O [N-Ethylmaleimide]
[19]
  inhibition at 5 µM: 5.02%
[20]
  inhibition at 5 µM: -1.33%
[24]
  mean (LOPAC_screen_w_protease): 1.849

## CN1C[C@H](O)[C@@H](O)[C@H](O)[C@H]1CO [N-Methyl-1-deoxynojirimycin]
Sheet LOPAC_screen_w_protease, LOPAC1280 primary screen with protease, 5 µM compound, mean of the two replicates
  mean: 4.2727
Sheet LOPAC_screen_w_protease, LOPAC1280 primary screen with protease, 5 µM compound, replicate 1
  Replicate_1: 3.9484
Sheet LOPAC_screen_w_protease, LOPAC1280 primary screen with protease, 5 µM compound, replicate 2
  Replicate_2: 4.597

## CN[C@H](CC(=O)O)C(=O)O [N-Methyl-D-aspartic acid]
[7]
  inhibition at 5 µM: 3.42%
[8]
  inhibition at 5 µM: 4.04%
[9]
  inhibition at 5 µM: 2.81%

## CNC(=O)c1cc2c(cn1)[nH]c1ccccc12 [N-Methyl-beta-carboline-3-carboxamide]
[13]
  mean: 1.084
[14]
  Replicate_1: 1.698
[15]
  Replicate_2: 0.4701

## CNCCc1ccc(O)c(O)c1.Cl [N-Methyldopamine hydrochloride]
[13]
  mean: 1.304
[14]
  Replicate_1: 0.8088
[15]
  Replicate_2: 1.799

## CCCCCCCC/C=C\CCCCCCCC(=O)NCCc1ccc(O)c(O)c1 [N-Oleoyldopamine]
[24]
  mean (LOPAC_screen_w_protease): 2.025
[17]
  Replicate_1 (LOPAC_screen_w_protease): 0.1379
[18]
  Replicate_2 (LOPAC_screen_w_protease): 3.912

## CCCCCCCC/C=C\CCCCCCCC(=O)NCCO [N-Oleoylethanolamine]
[10]
  mean: 3.1732
[11]
  Replicate_1: 4.947
[12]
  Replicate_2: 1.4
